{"source": "patent US6143910A", "about": "“Methods for preparation and use of 1α, 24(S) -dihydroxy vitamin D2” (priority 1998, dated 2000)", "key": {"[1]": {"biological_target": "T1, vitamin D receptor (VDR) (Homo sapiens, UniProt P11473)", "T1 sequence (P11473 1-427)": "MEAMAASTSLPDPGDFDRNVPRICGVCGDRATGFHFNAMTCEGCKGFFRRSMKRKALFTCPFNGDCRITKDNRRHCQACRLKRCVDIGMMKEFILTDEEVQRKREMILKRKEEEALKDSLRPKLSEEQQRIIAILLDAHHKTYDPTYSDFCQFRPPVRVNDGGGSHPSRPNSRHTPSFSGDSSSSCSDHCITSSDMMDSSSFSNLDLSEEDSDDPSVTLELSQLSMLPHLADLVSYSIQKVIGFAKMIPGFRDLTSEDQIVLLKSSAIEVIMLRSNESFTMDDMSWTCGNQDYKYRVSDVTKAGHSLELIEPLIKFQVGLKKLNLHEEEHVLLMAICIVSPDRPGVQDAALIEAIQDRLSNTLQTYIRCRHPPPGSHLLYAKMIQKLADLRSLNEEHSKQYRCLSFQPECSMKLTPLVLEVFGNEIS", "assay": "Vitamin D-dependent transcriptional activation, growth hormone production in co-transfected COS-1 cells", "assay_type": "cell-based", "method": "The biological activity in vitro of chemically synthesized 1α,24(S)-(OH)2 D2 and 1α,24(R)-(OH)2 D2 was measured using a vitamin D-dependent transcriptional activation model system in which a vitamin D receptor (VDR)-expressing plasmid pSG5-hVDR1/3and a plasmid p(CT4)^4 TKGH containing a Growth Hormone (GH)-gene, under the control of a vitamin D-responsive element (VDRE) were co-transfected into Green monkey kidney, COS-1 cells. DNA's for these two vectors were supplied by Dr. Mark Haussler, Department of Biochemistry, University of Arizona, Tucson, Ariz.\nTranfected cells were incubated with vitamin D metabolites and growth hormone production was measured."}, "[2]": {"assay": "Dose ranging study in postmenopausal osteoporotic women", "assay_type": "in vivo, human", "details": "oral 0.5 to 8.0 μg/day, escalated weekly over five weeks", "method": "Twenty postmenopausal osteoporotic women are enrolled in an open label study.\nOn admission to the study, all patients receive instruction on selecting a daily diet containing 400 to 600 mg of calcium. Compliance to this diet is verified at weekly intervals by 24-hour food records and by interviews with each patient.\nAll patients complete a one-week baseline period, a five-week treatment period, and a one-week post-treatment observation period. During the treatment period, patients orally self-administer 1α,24(S)-dihydroxyvitamin D2 at an initial dose of 0.5 μg/day for the first week, and at successively higher doses of 1.0, 2.0, 4.0, and 8.0 μg/day in each of the following four weeks. All doses are administered before breakfast.\nBlood and urine chemistries are monitored on a weekly basis throughout the study. Key blood chemistries include fasting serum levels of-calcium, phosphorus, osteocalcin, creatinine, and blood urea nitrogen. Key urine chemistries include 24-hour excretion of calcium, phosphorus, and creatinine."}, "[3]": {"assay": "Prophylaxis of postmenopausal bone loss in healthy postmenopausal women", "assay_type": "in vivo, human", "details": "at or above 1.0 μg/day", "method": "A clinical study is conducted with healthy postmenopausal women having ages between 55 and 60 years. The study involves up to 80 patients randomly divided into two treatment groups, and continues for 24 to 36 months. One treatment group receives a constant dosage of 1α,24(S)-dihydroxy vitamin D2 (u.i.d.; a dose level at or above 1.0 μg/day) and the other receives a matching placebo. The study is conducted as indicated in Example 2 above."}, "[4]": {"assay": "Dermatological testing, topical treatment of dermatitis", "assay_type": "in vivo, human", "details": "ointment 10 μg per gram, twice daily, four to six weeks", "method": "Compositions containing 1α,24(S)-dihydroxy vitamin D2 are evaluated for therapeutic efficacy of the composition in the topical treatment of dermatitis (contact and ectopic). The composition evaluated is an ointment containing 10 μg of 1α,24-dihydroxy vitamin D2 per gram of ointment in a petrolatum-almond oil base. […] The patients are treated in an out-patient clinic. They are instructed to use the preparation two times a day.\nThe ointment is as far as possible applied to a single lesion, or to an area of the disease. The ointment and its container are weighed before the treatment starts and returned with any unused contents for reweighing at the end of the treatment.\nThe area of the lesion treated is estimated and recorded, and the lesion is photographed as required, together with suitable \"control\" lesions. The latter are preferably lesions of similar size and stage of development, either in the vicinity of the treated lesion or symmetrically contralateral. Relevant details of the photographic procedure are recorded so as to be reproduced when the lesions are next photographed (distance, aperture, angle, background, etc.). The ointment is applied twice daily and preferably left uncovered. The \"control\" lesions are left untreated, but if this is not possible, the treatment used on them is noted. […]"}, "[5]": {"system": "HL-60 promyelocytes", "assay": "HL-60 cell differentiation assay", "assay_type": "cell-based", "details": "dose-response study", "method": "A dose-response study is conducted with 1α,24(S)-(OH)2 D2 in the HL-60 cell differentiation assay as described by DeLuca and Ostrom (DeLuca, H. F. and Ostrem, V. K., Prog. Clin. Biol. Res., vol. 259, pp. 41-55 (1988)). In this study, 1α,25-(OH)2 D3 is used as a positive control and appropriate solvents are used as negative controls. The following variables are evaluated: nonspecific acid esterase activity, nitroblue tetrazolium (NBT) reduction, and thymidine incorporation."}}, "data": [{"smiles": "C=C1/C(=C\\C=C2/CCC[C@]3(C)[C@@H]([C@H](C)/C=C/[C@@](C)(O)C(C)C)CC[C@@H]23)C[C@@H](O)C[C@@H]1O", "note": "[1α,24(S)-(OH)2 D2, 1α,24(S)-dihydroxy Vitamin D2]", "values": [{"measurement": "Activity in the transcriptional activation system compared with 1α,24(R)-(OH)2 D2", "setting": "[1]", "result": "significantly more activity"}, {"measurement": "24-hour urinary calcium levels", "setting": "[2]", "result": "modest increases"}, {"measurement": "Routinely monitored serum parameters", "setting": "[2]", "result": "no effect on any routinely monitored serum parameters"}, {"measurement": "Serum osteocalcin levels", "setting": "[2]", "result": "increases in serum osteocalcin levels"}, {"measurement": "Urinary excretion of hydroxyproline", "setting": "[2]", "result": "nor does it increase urinary excretion of hydroxyproline"}, {"measurement": "Losses in total body calcium, radial or spinal bone densities versus baseline", "setting": "[3]; 24 to 36 months", "result": "reduced losses"}, {"measurement": "Monitored safety parameters", "setting": "[3]; long-term", "result": "confirm the safety"}, {"measurement": "Incidence of hypercalcemia", "setting": "[4]", "result": "insignificant incidence of hypercalcemia"}, {"measurement": "Lesion severity scores (erythema, scaling, thickness, rated 0 to 3)", "setting": "[4]", "result": "lower scores than the control lesions"}, {"measurement": "Promotion of differentiation of HL-60 promyelocytes to monocytes", "setting": "[5]", "result": "potent activity"}]}]}
